Test results reported in patent publication US5773628A, “1,2-dioxetane compounds with haloalkoxy groups, methods preparation and use” (Tropix, Inc., priority 1994, dated 1998).
Entries after “also recorded” stand apart in the source; their conditions may differ.

Key:
[1] = Base-induced decomposition of hydroxy dioxetanes (first order decay of chemiluminescence); format: physicochemical; conditions: 37° C.; 0.2M 2-methyl-2-amino-1-propanol buffer pH 9.6, 0.88 mM Mg+2, 1.0 mg/mL Enhancer A
Experimental: (§1) Calf intestinal alkaline phosphatase (AP) was obtained from Biozyme (San Diego, Calif.). Other chemical reagents were obtained from Aldrich Chemical Co. (Milwaukee). Nuclear magnetic resonance (NMR) spectra were obtained on a Varian Gemini 300 spectrometer as solutions in D2 O or CDCl3. Chemiluminescence intensities and rate measurements were performed using either a Turner Designs (Sunnyvale, Calif.) model TD-20e luminometer, a Luminoskan luminometer (Helsinki, Finland), a charge-coupled device camera luminometer constructed in the inventors' laboratory or a luminometer constructed in the inventors' laboratory consisting of an electrically heated sample block, an optical fiber and associated optics for light collection and a photomultiplier tube. Temperature control of samples analyzed in the commercial luminometers was achieved by means of a circulating bath connected to the instrument. Quantitative measurement of light intensities on the Turner luminometer was extended beyond the 10^4 linear range of the detector by a neutral density filter. Data collection from each of the instruments was controlled by an Apple MacIntosh SE/30 computer using the LUMISOFT data reduction program (Lumigen).
The first order decay of chemiluminescence of dioxetanes 1 and 3 in 0.2M 2-methyl-2-amino-1-propanol buffer, pH 9.6 containing 0.88 mM Mg^+2 and 1.0 mg/mL of Enhancer A at 37° C. was measured in a luminometer. The half-life of decay of chemiluminescence (t1/2) of dioxetanes 1 and 3 in 0.2M 2-methyl-2-amino-1-propanol buffer, pH 9.6 containing 0.88 mM Mg^+2 and 1.0 mg/mL of Enhancer A correlate with the times required to reach the maximum light intensity (Imax) in the alkaline phosphatase-triggered decomposition of dioxetanes 2 and 5 in the same buffer solution. The half-life of decay of luminescence of the hydroxy dioxetane homologous to a phosphate-protected dioxetane, therefore, is useful for predicting the grow-in kinetics of light emission for phosphatase triggering of the corresponding phosphate dioxetane. In particular, hydroxy dioxetanes which show a faster t1/2 than dioxetane 1 indicate that the corresponding phosphate dioxetanes are expected to reach Imax more quickly. Other hydroxy dioxetanes (7-9) were then examined under the same conditions.

[2] = test system: Calf intestinal alkaline phosphatase (AP); experiment: Relative chemiluminescence quantum yields (total light after complete dephosphorylation by AP); format: biochemical
Experimental: as §1
The relative chemiluminescence quantum yields of dioxetanes 2 and 5 were determined in formulations containing 1 mg/mL or 0.1 mg/mL of Enhancer A in 0.2M 2-amino-2-methyl- 1-propanol buffer, pH 9.6 containing 0.88 mM Mg^+2. A 100 μL aliquot of each reagent was completely dephosphorylated by addition of 3.36×10^-13 mol of alkaline phosphatase. The total amount of light emitted in Relative Light Units (RLU) was integrated until light emission ceased. A similar comparison was also made with 500 μL portions of formulations without any enhancer using 0.75M 2-amino-2-methyl-1-propanol buffer, pH 9.6 containing 0.88 mM Mg^+2.

[3] = test system: Calf intestinal alkaline phosphatase (AP); experiment: Effect of enhancer concentration on AP-induced chemiluminescence intensity and kinetics; comparison of optimized solutions; format: biochemical
Experimental: FIG. 1 is a graph showing the time profiles of the chemiluminescence intensity emitted by 100 μL of a reagent containing dioxetane 5 (4-(2,2,2-trifluoroethoxy)-4-(3-phosphoryloxyphenyl)spiro[1,2-dioxetane-3,2'-tricyclo-[3.3.1.1^3,7 ]decane] disodium salt) and various amounts of an enhancer triggered at 37° C. by addition of 1.12×10^-17 mol of alkaline phosphatase (AP). The reagent consists of a 0.33 mM solution of the dioxetane 5 in 0.2M 2-amino-2-methyl-1-propanol buffer, pH 9.6 containing 0.1, 0.25, 0.5 or 1 mg/mL of 1-(tri-n-octylphosphoniummethyl)-4-(tri-n-butyl-phosphoniummethyl)benzene dichloride (Enhancer A).
FIG. 2 is a graph showing a comparison of the time profile of the chemiluminescence intensity emitted by 100 μL of a reagent containing dioxetane 5 and various amounts of an enhancer triggered at 37° C. by addition of 1.12×10^-17 mol of AP. The reagents consist of a 0.33 mM solution of dioxetane 5 in 0.2M 2-amino-2-methyl-1-propanol buffer, pH 9.6 containing 0.01, 0.025, 0.1 or 0.5 mg/mL of polyvinylbenzyltributylphosphonium chloride co-polyvinylbenzyltri-octylphosphonium chloride (containing a 3:1 ratio of tributyl:trioctyl groups), Enhancer B, the preparation of which is described in European Patent Application 561,033 published Sep. 22, 1993.
FIG. 3 is a graph showing a comparison of the time profile of the chemiluminescence intensity emitted by 100 μL of enhanced reagents containing either dioxetane 2 (LUMIGEN PPD, Lumigen, Inc., Southfield, Mich.) or 5 triggered at 37° C. by addition of 1.12×10^-17 mol of AP. The reagents consist of 1) a 0.33 mM solution of dioxetane 2 in 0.2M 2-amino-2-methyl-1-propanol buffer, pH 9.6 containing 1.0 mg/mL of the enhancer 1-(tri-n-octylphosphoniummethyl)-4-(tri-n-butylphosphoniummethyl) benzene dichloride, and 2) a 0.33 mM solution of dioxetane 5 in 0.2M 2-amino-2-methyl-1-propanol buffer, pH 9.6 containing 0.1 mg/mL of the same enhancer.
FIG. 4 is a graph showing a comparison of the time profile of the chemiluminescence intensity emitted by 100 μL of another pair of enhanced reagents containing either dioxetane 2 or 5 triggered at 37° C. by addition of 1.12×10^-17 mol of AP. The reagents consist of 1) a 0.33 mM solution of dioxetane 2 in 0.2M 2-amino-2-methyl-1-propanol buffer, pH 9.6 containing 0.5 mg/mL of Enhancer B and 2) a 0.33 mM solution of dioxetane 5 in 0.2M 2-amino-2-methyl-1-propanol buffer, pH 9.6 containing 0.25 mg/mL of the same enhancer.
as §1
A concentration dependence study was conducted in an effort to find the optimum amount of enhancer A to use in the alkaline phosphatase-induced chemiluminescent reaction of dioxetane 5. Solutions of dioxetane 5 in 0.2M 2-methyl-2-amino-1-propanol buffer, pH 9.6 containing 0.88 mM Mg^+2 and 1, 0.5, 0.25 or 0.1 mg/mL of Enhancer A were prepared. […]

[4] = test system: Calf intestinal alkaline phosphatase (AP); experiment: Kinetic profile of alkaline phosphatase-triggered chemiluminescence (time to 95% of maximum intensity); format: biochemical; conditions: for Time to Reach 95% of Maximum Light Intensity from Alkaline Phosphatase-Triggering: 37° C.
Experimental: as §1
The improvement in detection speed afforded by compositions containing the phosphate dioxetane 5 is shown in Table 2 through a comparison with dioxetane 2 of the times to reach 95% of the maximum chemiluminescence intensities produced by reaction with AP. Three different reagent compositions containing either dioxetane 2, 4-methoxy-4-(3-phosphoryloxy-phenyl)spiro[1,2-dioxetane-3,2'-tricyclo-[3.3.1.1^3,7 ]decane], disodium salt, (LUMIGEN PPD, Lumigen, Inc.) or 5 were reacted at 37° C. with AP. Composition A consists of 0.33 mM dioxetane in 0.2M 2-methyl-2-amino-1-propanol buffer (pH 9.6) containing 1.0 mg/mL 1-(tri-n-octylphosphoniummethyl)-4-(tri-n-butylphosphonium-methyl) benzene dichloride (Enhancer A); 100 μL portions were reacted with 3.36×10^-16 mol of enzyme. Composition B consists of 0.33 mM dioxetane in 0.2M 2-methyl-2-amino-1-propanol buffer (pH 9.6) containing 0.5 mg/mL of polyvinylbenzyl-tributylphosphon ium chloride co-polyvinylbenzyltrioctyl-phosphonium chloride (containing a 3:1 ratio of tributyl:trioctyl groups) the preparation of which is described in European Patent Application 561,033 published Sep. 22, 1993 (Enhancer B); 100 μL portions were reacted with 3.36×10^-16 mol of enzyme. Composition C consists of 0.33 mM dioxetane in 0.2M 2-methyl-2-amino-1-propanol buffer (pH 9.6); 500 μL portions were reacted with 1.12×10^-15 mol of enzyme.

[5] = test system: Calf intestinal alkaline phosphatase (AP); experiment: Chemiluminescent detection of alkaline phosphatase on membrane; format: biochemical; conditions: 1 mg/mL Enhancer A, pH 9.6, 0.33 mM dioxetane, AP 1.1 fmol to 1.1 amol, X-ray film (FIG. 6)
Experimental: FIG. 6 is a digitally scanned image of an X-ray film from an experiment detecting alkaline phosphatase on a membrane with chemiluminescence. Solutions of alkaline phosphatase in water containing from 1.1×10^-15 to 1.1×10^-18 mol were applied to identical nylon membranes (Micron Separations Inc., Westboro, Mass). The membranes were air dried for 5 min and soaked briefly with a reagent containing 1 mg/mL of Enhancer A in 0.2M 2-amino-2-methyl-1-propanol buffer, pH 9.6 containing 0.88 mM MgCl and either 0.33 mM dioxetane 2 or 0.33 mM dioxetane 5. The membranes were placed between transparent plastic sheets and exposed to X-ray film (Kodak X-OMAT AR, Rochester, N.Y.).
Calf intestinal alkaline phosphatase (AP) was obtained from Biozyme (San Diego, Calif.). Other chemical reagents were obtained from Aldrich Chemical Co. (Milwaukee). Nuclear magnetic resonance (NMR) spectra were obtained on a Varian Gemini 300 spectrometer as solutions in D2 O or CDCl3. […] Temperature control of samples analyzed in the commercial luminometers was achieved by means of a circulating bath connected to the instrument. Quantitative measurement of light intensities on the Turner luminometer was extended beyond the 10^4 linear range of the detector by a neutral density filter. […]

[6] = Enhancer A 1 mg/mL, 100 μL, 0.2M buffer pH 9.6, 3.36×10^-13 mol AP
[7] = No enhancer, 500 μL, 0.75M 2-amino-2-methyl-1-propanol buffer pH 9.6, 0.88 mM Mg+2
[8] = Composition A: 0.33 mM dioxetane, 0.2M 2-methyl-2-amino-1-propanol buffer pH 9.6, 1.0 mg/mL Enhancer A, 100 μL, 3.36×10^-16 mol AP
[9] = Composition B: 0.33 mM dioxetane, buffer pH 9.6, 0.5 mg/mL Enhancer B, 100 μL, 3.36×10^-16 mol AP
[10] = Composition C: 0.33 mM dioxetane, buffer pH 9.6, no enhancer, 500 μL, 1.12×10^-15 mol AP

| t1/2 of decay of chemiluminescence [1] | Structure (SMILES) | Total Light Intensity [2, 6] | Total Light Intensity [2, 7] | Time to Reach 95% of Maximum Light Intensity from Alkaline Phosphatase-Triggering [4, 8] | Time to Reach 95% of Maximum Light Intensity from Alkaline Phosphatase-Triggering [4, 9] | Time to Reach 95% of Maximum Light Intensity from Alkaline Phosphatase-Triggering [4, 10] | other results |
| --- | --- | --- | --- | --- | --- | --- | --- |
| 2.0 min | Oc1cccc(C2(OCC(F)(F)F)OOC23C2CC4CC(C2)CC3C4)c1 (stereo not drawn) [Dioxetane 3] | – | – | – | – | – | – |
| 2.8 min | Oc1cccc(C2(OCC(F)F)OOC23C2CC4CC(C2)CC3C4)c1 (stereo not drawn) [Dioxetane 7] | – | – | – | – | – | – |
| 6.1 min | Oc1cccc(C2(OCCF)OOC23C2CC4CC(C2)CC3C4)c1 (stereo not drawn) [Dioxetane 8] | – | – | – | – | – | – |
| – | O=P(O)(O)Oc1cccc(C2(OCC(F)(F)F)OOC23C2CC4CC(C2)CC3C4)c1 (stereo not drawn) [Dioxetane 5] | 1.23 × 10^7 RLU | 9.65 × 10^4 RLU | 6 min | 4.3 min | 4.5 min | Total Light Intensity ([2]; Enhancer A 0.1 mg/mL, 100 μL, 0.2M buffer pH 9.6, 3.36×10^-13 mol AP): 1.01 × 10^7 RLU; Total light produced compared to dioxetane 2 ([2]; with or without Enhancer A): produces more light than dioxetane 2; Chemiluminescence intensity and time profile compared to dioxetane 2 (1 mg/mL Enhancer A) ([3]; 0.33 mM dioxetane 5 with 0.1 mg/mL Enhancer A, 37° C., 1.12×10^-17 mol AP (FIG. 3)): reaches a significantly higher maximum intensity and reaches a plateau much more rapidly; also recorded: more intense chemiluminescence under these conditions but also a shorter delay until the maximum intensity is reached; Chemiluminescence intensity and time profile compared to dioxetane 2 (0.5 mg/mL Enhancer B) ([3]; 0.33 mM dioxetane 5 with 0.25 mg/mL Enhancer B, 37° C., 1.12×10^-17 mol AP (FIG. 4)): reaches a higher light intensity in the first 15 minutes; also recorded: a higher light intensity within the first 15 min; Plateau light intensity and rise time vs. amount of Enhancer A ([3]; Enhancer A 1, 0.5, 0.25 or 0.1 mg/mL, pH 9.6, 37° C., 1.12×10^-17 mol AP (FIG. 1)): increasingly higher plateau light intensities and slower rise times as the amount of enhancer is reduced; Rise time vs. amount of Enhancer B ([3]; Enhancer B 0.5 to 0.01 mg/mL, pH 9.6, 37° C., 1.12×10^-17 mol AP (FIG. 2)): slower rise times as the amount of enhancer is reduced from 0.5 to 0.01 mg/mL; Plateau light intensity compared to dioxetane 2 ([4]; Composition A): higher plateau light intensity; Image intensity and detection sensitivity on nylon membrane compared to dioxetane 2 [5]: more intense images and better detection sensitivity |
| 15.9 min | COC1(c2cccc(O)c2)OOC12C1CC3CC(C1)CC2C3 (stereo not drawn) [Dioxetane 1] | – | – | – | – | – | – |
| – | COC1(c2cccc(OP(=O)(O)O)c2)OOC12C1CC3CC(C1)CC2C3 (stereo not drawn) [Dioxetane 2] | 9.24 × 10^6 RLU | 4.41 × 10^4 RLU | 32 min | 37 min | 6 min | Rise time to maximum light intensity ([3]; Enhancer B reduced from 3 mg/mL to 0.1 mg/mL): essentially constant at an hour or more; Rise time to maximum light intensity ([3]; all concentrations of Enhancer A from 0.1 mg/mL to 3 mg/mL): an hour or more |
